Laboratory results as given in the NIST ThermoML archive (doi:10.1016/j.jct.2015.06.002).
± gives the expanded uncertainty stated by the source.

Tests used:
[1] = 298.15 K; Liquid; Gas chromatography
[2] = Boiling temperature at pressure P; details: Liquid, Gas chromatography

C/C=C/C=C/CCCCCCCO [(E,E)-8,10-dodecadien-1-ol]
vapor or sublimation pressure [1]: 8.3e-05 ± 2.5e-05 kPa
Boiling temperature at pressure P ([2]; 0.267 kPa): 116 ± 20 °C
Boiling temperature at pressure P ([2]; 101.33 kPa): 276.0 ± 20 °C
